Reference: article PMC12362796, “Bilirubin Targeting WNK1 to Alleviate NLRP3‐Mediated Neuroinflammation” (Advanced Science, 2025)

Assays:
[1] = tested on: primary cultured hippocampal neurons; experiment: MQAE intracellular chloride measurement in primary cultured hippocampal neurons; format: cell-based, mouse; settings: co-treatment with bilirubin, DIV8 primary hippocampal neurons, MQAE
Description: Therefore, we hypothesized that bilirubin activation of WNK1 kinase activity might affect intracellular chloride levels. […] This was detected using the sensitive molecular probe N‐(Ethoxycarbonylmethyl)‐6‐Methoxyquinolinium Bromide (MQAE), as indicated by a reduction in MQAE fluorescence intensity (Figure 4C,E).^[ [32] ^]
To ascertain whether bilirubin regulates chloride ions through WNK1, we generated Wnk1 gene knockout primary cultured neurons. We achieved neuron‐specific deletion of Wnk1 in hippocampal neurons by transducing primary neurons isolated from Wnk1^flox/flox embryonic mice with a lentivirus expressing hSyn‐Cre‐EGFP.^[ [33], [34] ^] […] Intracellular chloride concentration is crucial for modulating inhibitory synaptic transmission and, consequently, neuronal excitability.
Since bilirubin‐induced activation of WNK1 kinase activity increases [Cl⁻]i in neurons, we sought to elucidate the downstream effector proteins of WNK1 that are involved in this process. Neuronal [Cl⁻]i is primarily regulated by the Cl⁻‐K⁺ symporter KCC2, with additional modulation by factors such as the Na⁺‐K⁺‐Cl⁻ co‐transporter NKCC1, GABAA receptors, and glycine receptors (GlyR), all of which contribute to [Cl⁻]i homeostasis.^[ [31] ^] To investigate the mechanism underlying bilirubin‐induced changes in [Cl⁻]i, we selectively targeted these proteins using pharmacological inhibitors (VU0463271 for KCC2, bumetanide for NKCC1, bicuculline for GABAA receptors, and strychnine for GlyR) and activated KCC2 using CLP257.^[ [35], [36] ^] […] The bilirubin‐induced effect on [Cl⁻]i was not observed in primary astrocytes (Figure S15A,B, Supporting Information) or the HEK 293T cell line (Figure S15C, Supporting Information), both of which lacked KCC2 expression (Figure S16A,B, Supporting Information), further confirming that the effects of bilirubin and WNK1 on [Cl⁻]i elevation are dependent on KCC2.
Intracellular chloride concentration ([Cl⁻]i) was measured using the MQAE fluorescent dye (Life Technologies) following established protocols (Zhang, Lee et al. 2015). […]

TRPM2 channels = tested on: TRPM2 channels; set-up: method as in PMID 36921602; settings: structural derivative of bilirubin; previous research; cited from earlier work
full-length hWNK1 = target: T1, full-length hWNK1 (Homo sapiens, UniProt Q9H4A3); experiment: MicroScale Thermophoresis (MST), EGFP-tagged full-length WNK1 in HEK293T cell lysates; format: binding; settings: 15 min incubation, lysates of EGFP-WNK1 expressing HEK293T cells, control ligand
T1 construct: We overexpressed full‐length WNK1 fused with Green Fluorescent Protein (GFP); expressed in transfected cells; host or cells: HEK293T
T1 sequence (Q9H4A3 whole entry, the tested form may be a part): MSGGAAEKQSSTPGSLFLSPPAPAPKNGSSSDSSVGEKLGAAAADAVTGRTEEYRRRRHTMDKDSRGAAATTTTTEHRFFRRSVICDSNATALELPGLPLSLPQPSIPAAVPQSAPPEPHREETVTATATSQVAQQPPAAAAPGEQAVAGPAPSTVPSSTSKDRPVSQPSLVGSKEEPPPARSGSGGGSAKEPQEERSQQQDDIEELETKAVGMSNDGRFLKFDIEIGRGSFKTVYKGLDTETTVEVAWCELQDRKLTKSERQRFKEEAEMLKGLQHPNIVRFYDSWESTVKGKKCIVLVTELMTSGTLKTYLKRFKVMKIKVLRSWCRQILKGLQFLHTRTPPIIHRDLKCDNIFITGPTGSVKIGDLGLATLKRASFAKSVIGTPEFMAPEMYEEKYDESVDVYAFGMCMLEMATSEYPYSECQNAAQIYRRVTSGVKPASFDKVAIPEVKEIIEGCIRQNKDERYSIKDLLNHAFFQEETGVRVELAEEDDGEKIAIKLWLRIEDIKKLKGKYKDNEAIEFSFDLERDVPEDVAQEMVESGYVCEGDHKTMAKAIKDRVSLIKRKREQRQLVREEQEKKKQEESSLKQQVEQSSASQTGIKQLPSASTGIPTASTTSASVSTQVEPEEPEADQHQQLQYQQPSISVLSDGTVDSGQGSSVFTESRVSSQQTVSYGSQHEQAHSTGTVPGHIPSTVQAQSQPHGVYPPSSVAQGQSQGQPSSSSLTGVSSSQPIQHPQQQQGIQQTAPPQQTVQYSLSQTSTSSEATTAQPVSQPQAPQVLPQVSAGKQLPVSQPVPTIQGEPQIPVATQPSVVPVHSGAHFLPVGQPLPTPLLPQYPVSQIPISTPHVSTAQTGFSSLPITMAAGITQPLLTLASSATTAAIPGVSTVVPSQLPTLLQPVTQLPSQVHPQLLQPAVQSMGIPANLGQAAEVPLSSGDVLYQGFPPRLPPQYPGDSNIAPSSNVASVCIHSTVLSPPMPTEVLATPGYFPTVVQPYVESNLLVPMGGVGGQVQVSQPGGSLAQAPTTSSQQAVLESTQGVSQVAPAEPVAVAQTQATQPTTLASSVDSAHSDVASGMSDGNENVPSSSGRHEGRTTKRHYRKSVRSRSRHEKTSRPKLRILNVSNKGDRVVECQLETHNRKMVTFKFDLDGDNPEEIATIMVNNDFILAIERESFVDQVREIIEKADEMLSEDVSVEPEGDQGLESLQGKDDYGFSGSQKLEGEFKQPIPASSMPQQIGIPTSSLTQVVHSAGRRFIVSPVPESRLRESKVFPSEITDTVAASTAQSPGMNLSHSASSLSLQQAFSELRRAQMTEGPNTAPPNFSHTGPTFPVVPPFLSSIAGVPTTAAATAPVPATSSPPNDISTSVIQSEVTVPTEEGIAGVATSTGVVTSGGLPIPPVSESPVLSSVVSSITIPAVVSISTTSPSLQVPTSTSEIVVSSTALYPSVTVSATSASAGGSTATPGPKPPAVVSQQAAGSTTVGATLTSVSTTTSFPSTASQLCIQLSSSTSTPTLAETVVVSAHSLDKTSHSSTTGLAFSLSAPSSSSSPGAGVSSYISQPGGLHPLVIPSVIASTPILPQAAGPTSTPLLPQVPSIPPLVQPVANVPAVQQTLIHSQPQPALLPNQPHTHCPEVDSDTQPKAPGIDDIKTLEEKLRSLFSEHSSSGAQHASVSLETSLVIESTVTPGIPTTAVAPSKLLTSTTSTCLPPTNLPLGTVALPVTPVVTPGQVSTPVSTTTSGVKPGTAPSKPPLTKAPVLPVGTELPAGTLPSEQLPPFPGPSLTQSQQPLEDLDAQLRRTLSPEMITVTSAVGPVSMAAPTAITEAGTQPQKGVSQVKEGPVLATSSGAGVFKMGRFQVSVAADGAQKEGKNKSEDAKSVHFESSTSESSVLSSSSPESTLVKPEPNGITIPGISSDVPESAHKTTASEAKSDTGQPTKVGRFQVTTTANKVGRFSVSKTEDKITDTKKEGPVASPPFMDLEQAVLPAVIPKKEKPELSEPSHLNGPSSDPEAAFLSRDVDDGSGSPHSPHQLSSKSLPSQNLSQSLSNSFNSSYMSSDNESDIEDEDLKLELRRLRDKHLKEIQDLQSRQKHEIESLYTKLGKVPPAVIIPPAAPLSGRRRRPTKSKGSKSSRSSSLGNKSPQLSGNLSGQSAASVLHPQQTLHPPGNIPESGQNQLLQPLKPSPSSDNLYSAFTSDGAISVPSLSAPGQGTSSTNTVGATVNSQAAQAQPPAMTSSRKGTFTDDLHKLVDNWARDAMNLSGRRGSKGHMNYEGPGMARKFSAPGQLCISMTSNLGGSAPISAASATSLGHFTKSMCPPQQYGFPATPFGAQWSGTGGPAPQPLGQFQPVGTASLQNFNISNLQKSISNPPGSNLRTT
Procedure: To validate the direct binding of bilirubin to WNK1, we performed a Microscale Thermophoresis (MST) analysis, which assesses the binding capacity of a compound by measuring the movement of proteins over a microscopic temperature gradient.^[ [26], [27] ^] We overexpressed full‐length WNK1 fused with Green Fluorescent Protein (GFP) in HEK‐293 cells, incubated the lysates with bilirubin at varying dilutions, and subjected them to precise MST measurements in capillaries. […] Furthermore, biliverdin, a structurally similar intermediate product generated before bilirubin formation, was used as a control.
All WNK1 clones were derived from the original untagged hWNK1 cDNA (NM_018979), which was modified and subcloned into the pcDNA3.1, referred to as “full‐length WNK1” throughout this study. Truncated constructs, including 1–190aa, 191–491aa, 1–491aa, and 491–2382aa fragments, were generated by PCR using the full‐length template and subsequently ligated into linearized pcDNA3.1 vectors. WNK2 was obtained from Addgene Plasmid #24569, and WNK3 was obtained from Addgene Plasmid #81723. Both were subjected to base modifications and cloned into pcDNA3.1. The WNK4 clone was derived from hWNK4 cDNA (NM_032387.5), modified, and subcloned into the pCMV3‐C‐GFPSpark vector.
In HEK293T cells, proteins tagged with green fluorescent protein (GFP) were expressed. […]

| Structure (SMILES) | effect on bilirubin-induced elevation of [Cl−]i [1] | activation of TRPM2 channels (TRPM2 channels) | Kd (full-length hWNK1) |
| --- | --- | --- | --- |
| O=C1N=C(N2CCCCN2)S/C1=C\c1ccc(F)cc1O [CLP257, reference compound] | counteracted the effect of bilirubin |  |  |
| C=CC1=C(C)/C(=C/C2=NC(=C\c3[nH]c(/C=C4\NC(=O)C(C)=C4C=C)c(C)c3CCC(=O)O)/C(CCC(=O)O)=C2C)NC1=O [Biliverdin, reference compound] |  | can activate | 29.7 µM |
